Laboratory results reported in ChEMBL document CHEMBL1147335, “New leukotriene B4 receptor antagonist: leucettamine A and related imidazole alkaloids from the marine sponge Leucetta microraphis” (J Nat Prod, 1993).

Tests used:
[1] = biological target: T1, Leukotriene B4 receptor 1 (Homo sapiens, UniProt Q15722); test: Displacement of [3H]LTB4 from LTB4 receptor expressed in human U937 cell membrane; format: cell membranes, U-937
[2] = biological target: T1, Leukotriene B4 receptor 1; test: Antagonist activity at LTB4 receptor in fura-2 loaded human U937 cells assessed as inhibition of LTB4-induced calcium mobilization; format: functional, cell-based, U-937
[3] = biological target: T1, Leukotriene B4 receptor 1; test: Binding affinity to LTB4 receptor in human U937 cells by whole cell assay; format: cell-based, U-937

T1 sequence (Q15722 whole entry): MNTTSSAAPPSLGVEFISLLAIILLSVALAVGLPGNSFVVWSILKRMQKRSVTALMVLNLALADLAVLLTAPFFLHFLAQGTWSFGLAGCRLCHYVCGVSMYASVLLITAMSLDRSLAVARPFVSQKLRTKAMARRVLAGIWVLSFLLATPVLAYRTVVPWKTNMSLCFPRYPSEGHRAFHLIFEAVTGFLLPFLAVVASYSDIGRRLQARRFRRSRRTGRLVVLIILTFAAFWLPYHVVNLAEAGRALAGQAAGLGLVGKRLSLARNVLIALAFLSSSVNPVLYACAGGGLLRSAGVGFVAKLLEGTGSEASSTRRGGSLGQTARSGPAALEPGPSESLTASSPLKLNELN

SMILES | Ki [1] [µM] | IC50 [1] [µM] | IC50 [2] [µM] | IC50 [3] [µM]
CN1C(=O)/C(=C/c2ccc3c(c2)OCO3)N=C1N [LEUCETTAMINE B] | 100 |  |  | 
CN1C(=N)N(C)/C(=N/c2nc(Cc3ccc4c(c3)OCO4)c(Cc3ccc4c(c3)OCO4)n2C)C1=O [LEUCETTAMIDINE] | 5.3 | 15.6 |  | 
Cn1c(N)nc(Cc2ccc3c(c2)OCO3)c1Cc1ccc2c(c1)OCO2 [LEUCETTAMINE A] | 1.3 | 4 | 4.6 | 0.75
